From publication PMC11844072, “Novel 5,6-dichlorobenzimidazole derivatives as dual BRAFWT and BRAFV600E inhibitors: design, synthesis, anti-cancer activity and molecular dynamics simulations” (BMC Chemistry, 2025) come the findings set out here.

The test system of this test is UO-31. The experiment in a line: NCI 60 single concentration growth inhibition. It is filed as cell-based, human. The following applies: UO-31, Renal cancer, 10 μM. The essentials:
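Cells are plated and left 24 h, and a time-zero plate is fixed at drug addition. Compound is then added for 48 h, the cells are fixed in cold TCA and stained with 0.4% SRB, and bound dye is solubilised in 10 mM Tris for reading at 515 nm.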

In the case of “2-(4-((2-(2-(5,6-Dichloro-2-(4-methoxyphenyl)-1H-benzo[d]imidazol-1-yl)acetyl)hydrazono)methyl) -2-methoxyphenoxy)acetic acid [Compound 10m]”, the GI% stood at 8.63%.

In the case of “2-(5-((2-(2-(5,6-Dichloro-2-(4-methoxyphenyl)-1H-benzo[d]imidazol-1-yl)acetyl)hydrazono)methyl)-2-methoxyphenoxy)acetic acid [Compound 10n]”, the GI% was 13.00%.

“3-(4-((2-(2-(5,6-Dichloro-2-(4-methoxyphenyl)-1H-benzo[d]imidazol-1-yl)acetyl)hydrazono)methyl)phenoxy)propanoic acid [Compound 10i]” gave a GI% of 25.68%.

For the molecule `COc1ccc(-c2nc3cc(Cl)c(Cl)cc3n2CC(=O)NN=Cc2cccc(OCC(=O)O)c2)cc1` [Compound 10e, 2-(3-((2-(2-(5,6-Dichloro-2-(4-methoxyphenyl)-1H-benzo[d]imidazol-1-yl)acetyl)hydrazono)methyl)phenoxy)acetic acid], the GI% is recorded as 10.58%.
